Marks after values point to notes of the source that are not given here.
Tests used:
[1] = test system: kynurenine-3-monooxygenase; experiment: KMO inhibition, radiometric assay (Erickson et al.); format: biochemical; settings: 10 μM compound
Protocol: The KMO inhibiting activities of the compounds of the present invention were evaluated using standard methods. See Erickson et al., A Radiometric Assay for Kynurenine 3-Hydroxylase Based on the Release of ^3H2O During Hydroxylation of L-[3,5-^3H]-Kynurenine, Anal. Biochem. 1992, 205, 257-262, the disclosure of which is hereby incorporated by reference.
The IC50 value is the half maximal inhibitory concentration and represents the concentration of an inhibitor that is required for 50% inhibition of an enzyme activity and the percent inhibition measures the amount of enzyme activity inhibited at a given concentration of compound.

[2] = test system: R6/2 model of Huntington's disease; experiment: Survival in a mouse model of Huntington's disease (FIG. 13); format: in vivo; settings: R6/2 mice
From the text: The structure of the compound M is

[3] = test system: 3-HK in the brain; experiment: In vivo comparison: 3-HK in the brain after oral administration (FIG. 12)
From the text: The structure of the compound 61-8048 is as below:

SMILES	% inhibition at 10 μM [1]	melting point [°C]	further results
COC(=O)N(c1nc(-c2cccc([N+](=O)[O-])c2)cs1)S(=O)(=O)c1ccc(OC)c(OC)c1 [W, 3,4-dimethoxy-N-[4-(3-nitrophenyl)thiazol-2-yl]-N-(methylcarboxylate)benzenesulfonamide]	85%		
COc1ccc(S(=O)(=O)Nc2nc(-c3cccc([N+](=O)[O-])c3)c(CN3CCSCC3)s2)cc1OC		136	
COc1ccc(S(=O)(=O)Nc2nc(-c3cccc([N+](=O)[O-])c3)c(CN3CCN(C)CC3)s2)cc1OC [E, 3,4-dimethoxy-N-[4-(3-nitrophenyl)-5-((4-methylpiperazin-1-yl)methyl)-1,3-thiazole-2-yl]benzenesulfonamide]	6* %	215 to 217	
COc1ccc(S(=O)(=O)Nc2nc(-c3cccc([N+](=O)[O-])c3)c(CN(C)C)s2)cc1OC [A, 3,4-dimethoxy-N-[4-(3-nitrophenyl)-5-dimethylaminomethyl-1,3-thiazole-2-yl]benzenesulfonamide]	58%	203	
COc1ccc(S(=O)(=O)Nc2nc(-c3cccc([N+](=O)[O-])c3)c(CN3CCCCC3)s2)cc1OC [C, 3,4-dimethoxy-N-[4-(3-nitrophenyl)-5-(piperidin-1-ylmethyl)-1,3-thiazole-2-yl]benzenesulfonamide]	24%		
CCOC(=O)N(c1nc(-c2cccc([N+](=O)[O-])c2)cs1)S(=O)(=O)c1ccc(OC)c(OC)c1 [V, 3,4-dimethoxy-N-[4-(3-nitrophenyl)thiazol-2-yl]-N-(ethylcarboxylate)benzenesulfonamide]	84%		
COc1ccc(S(=O)(=O)Nc2nc(-c3cccc([N+](=O)[O-])c3)c(CN3CCOCC3)s2)cc1OC [D, 3,4-dimethoxy-N-[4-(3-nitrophenyl)-5-morpholinomethyl-1,3-thiazole-2-yl]benzenesulfonamide]	64%	143	
COc1ccc(S(=O)(=O)Nc2nc(-c3cccc([N+](=O)[O-])c3)cs2)cc1OC [Compound 61-8048, 3,4-Dimethoxy-N-[4-(3-nitrophenyl)thiazol-2-yl]benzenesulfonamide, reference compound]			effect on survival ([2]; 100 mg/kg/day, not shown in the figure): did not have a significant effect on survival; decrease of 3-HK in the brain [3]: does not decrease
COc1ccc(S(=O)(=O)Nc2nc(-c3cccc([N+](=O)[O-])c3)c(CN3CCCC3)s2)cc1OC [B, 3,4-dimethoxy-N-[4-(3-nitrophenyl)-5-(pyrrolidin-1-ylmethyl)-1,3-thiazole-2-yl]benzenesulfonamide]	9* %	198 to 200	
COc1ccc(S(=O)(=O)N(CN2CCCCC2)c2nc(-c3cccc([N+](=O)[O-])c3)cs2)cc1OC [Compound M]			magnitude of the effect of protection (survival) [2]: equal to or greater to that reported for any single agent administered in this model
CCN(CC)Cc1sc(NS(=O)(=O)c2ccc(OC)c(OC)c2)nc1-c1cccc([N+](=O)[O-])c1 [F, 3,4-dimethoxy-N-[4-(3-nitrophenyl)-5-(diethylamino)methyl-1,3-thiazole-2-yl]benzenesulfonamide]	74%	165 to 168	
COc1ccc(S(=O)(=O)N(C)c2nc(-c3cccc([N+](=O)[O-])c3)cs2)cc1OC [T, 3,4-dimethoxy-N-[4-(3-nitrophenyl)thiazol-2-yl]-N-(methyl)benzenesulfonamide]	52%		
CCCN(C)Cc1sc(NS(=O)(=O)c2ccc(OC)c(OC)c2)nc1-c1cccc([N+](=O)[O-])c1 [G, 3,4-dimethoxy-N-[4-(3-nitrophenyl)-5-(methylpropylamino)methyl-1,3-thiazole-2-yl]benzenesulfonamide]	73%	143 to 145	
CCOC(=O)CN(c1nc(-c2cccc([N+](=O)[O-])c2)cs1)S(=O)(=O)c1ccc(OC)c(OC)c1 [U, 3,4-dimethoxy-N-[4-(3-nitrophenyl)thiazol-2-yl]-N-[(ethylcarboxylate)methyl]benzenesulfonamide]	81%		

Reference: patent US8710237B2, “Small molecule inhibitors of kynurenine-3-monooxygenase” (The J. David Gladstone Institute, priority 2006, dated 2014)
